The text below walks through data of PMC8041751, “Structural basis for an exceptionally strong preference for asparagine residue at the S2 subsite of Stenotrophomonas maltophilia dipeptidyl peptidase 7” (Scientific Reports, 2021).

Residues, ends and D or L forms follow the SMILES beside them.

Assay [1] has as its system SmDPP7 R218A mutant. Put plainly: Kinetic parameters toward dipeptidyl MCA. Format: biochemical, Stenotrophomonas maltophilia. Also on record: key: “–” means not determined due to low activity. The method, then: (§1) To test the roles of the residues located in the S2 subsite for P2 residue recognition by SmDPP7, we replaced the following residues with alanine and analysed the enzymatic activities of the mutant enzymes on synthetic substrates, Gly-Tyr-MCA, Tyr-Tyr-MCA, and Asn-Tyr-MCA (Table 2). The mutated residues and their estimated roles were: Lys206, Arg218, Thr220, and Phe671 for interaction with the P2 side chain.
(§2) Kinetic parameters were determined by fitting the experimental data to the Michaelis–Menten equation using Excel Solver (Microsoft, WA, US) by nonlinear least-squares fitting with different concentrations of glycyl-L-tyrosyl-4-methylcoumaryl-7-amide (3.91, 7.81, 15.6, 31.3, 62.5, 125, 250, and 500 µM; Gly-Tyr-MCA; GenScript, NJ, US), L-tyrosyl-L-tyrosyl-4-methylcoumaryl-7-amide (1.56, 3.13, 6.25, 12.5, 25, 50, 100, and 200 µM; Tyr-Tyr-MCA; GenScript, NJ, US), L-asparaginyl-L-tyrosyl-4-methylcoumaryl-7-amide (1.56, 3.13, 6.25, 12.5, 25, 50, 100, and 200 µM; Asn-Tyr-MCA; GenScript, NJ, US), and L-leucinyl-L-asparaginic acid-4-methylcoumaryl-7-amide (0.781, 1.56, 3.13, 6.25, 12.5, 25, 50, and 100 µM; Leu-Asp-MCA; Peptide Institute, Osaka, Japan) as a substrate. The enzyme reaction was performed in a reaction buffer consisting of 50 mM sodium phosphate buffer pH 7.0, 5 mM EDTA, and 0.005% Tween 20 at 298 K for 20 min and standard deviations were calculated from three independent experiments. […] For SmDPP7 (wild-type and mutants), concentrations of the purified enzymes were 10, 2, and 2 nM for the hydrolyses of Gly-Tyr-MCA, Tyr-Tyr-MCA, and Asn-Tyr-MCA, respectively. Concentration of purified PgDPP7 used for determining kinetic parameters of Tyr-Tyr-MCA hydrolysis was 25 nM. For SmDPP11 and PgDPP11, concentrations of the purified enzymes used for determining kinetic parameters of Leu-Asp-MCA hydrolysis were 0.5 nM and 1 nM, respectively. The fluorescence intensity of the released MCA was measured with excitation at 355 nm and emission at 460 nm using an Infinite 200 PRO microplate reader (Tecan, Switzerland).

Assay [2] relates to SmDPP7 R218K mutant. Description: Kinetic parameters toward dipeptidyl MCA. Format: biochemical, Stenotrophomonas maltophilia. The method, then: as §1, §2
For assay [3], the system named is SmDPP7 K206A mutant. Description: Kinetic parameters toward dipeptidyl MCA. Format: biochemical, Stenotrophomonas maltophilia. The method, then: as §1, §2
Assay [4] has as its system SmDPP7 T220A mutant. Description: Kinetic parameters toward dipeptidyl MCA. The class given is biochemical, Stenotrophomonas maltophilia. The method, then:
as §1, §2

Assay [5] has as its system SmDPP7 F671A mutant. Put plainly: Kinetic parameters toward dipeptidyl MCA. The class given is biochemical, Stenotrophomonas maltophilia. On the procedure:
as §1, §2

For assay [6], the system named is SmDPP7 R218Q mutant. Description: Kinetic parameters toward dipeptidyl MCA. The class given is biochemical, Stenotrophomonas maltophilia.
In assay [7] the test system is wild-type SmDPP7. Description: Kinetic parameters toward dipeptidyl MCA. The class given is biochemical, Stenotrophomonas maltophilia. The conditions noted are these: pH 7.0, 298 K. The method, then: as §2
Assay [8] addresses wild-type SmDPP7. Put plainly: Isothermal titration calorimetry of dipeptide binding. Also noted: species or system Stenotrophomonas maltophilia. The conditions noted are these: ITC, 50 mM sodium phosphate pH 7.0, 2.5% dimethyl sulfoxide, 25 °C. The method, then: Figure 6 Thermodynamic parameters of dipeptide binding of SmDPP7. The value of thermodynamic parameters is represented in Table S3. The dissociation constant (Kd) and heats of binding (ΔH) were obtained using MICROCAL PEAQ-ITC Analysis software (Malvern, UK). Gibbs free energy (ΔG) and entropy energy (ΔS) were calculated according to the equation, ΔG = − RT ln Ka = RT ln Kd (Ka = 1/ Kd, association constants). Standard deviations were obtained from three independent experiments.
The bindings were analysed using a MICROCAL PEAQ-ITC microcalorimeter (Malvern, UK). The binding reactions were performed in 50 mM sodium phosphate pH 7.0 and 2.5% dimethyl sulfoxide at 25 °C and were stirred at 750 rpm. A single injection of 0.4 μl and 19 times injections of 2.0 μl of the dipeptide solution were injected into 350 μl of enzyme solution (wild-type SmDPP7). The wild-type SmDPP7 concentration was 25 µM and the concentration of each dipeptide solution was 250 µM in reaction buffer. Each injection was performed for 4 s with an interval of 150 s between injections. The dissociation constant (Kd) and heats of binding (ΔH) were obtained using MICROCAL PEAQ-ITC Analysis software (Malvern, UK). Gibbs free energy (ΔG) values were calculated according to ΔG = − RT ln Ka = RT ln Kd (Ka = 1/ Kd, association constants).
A general note: In ITC the heat of successive injections is recorded.

The target in assay [9] is SmDPP7. Description: Inhibition assay using dipeptide library, Tyr-Tyr-MCA hydrolysis. Format: biochemical, Stenotrophomonas maltophilia. Particulars: for Ki: Xaa-Tyr as competitive inhibitor, substrate 200 µM Tyr-Tyr-MCA, pH 7.0, 298 K, Ki from IC50 by Cheng-Prusoff. On the procedure:
Figure 1 Effect of Xaa-Tyr dipeptides on the hydrolytic activity of SmDPP7 towards synthetic substrate Tyr-Tyr-MCA. Inhibition assay was performed as described in “Materials and methods”. Residual activity was measured under conditions where 200 µM Xaa-Tyr dipeptide and 200 µM Tyr-Tyr-MCA, synthetic substrate were added into the reaction solution. […] The standard deviations were obtained from three independent experiments.
The dipeptide library was purchased from AnaSpec (Fremont, CA, US). Ile-Tyr and Arg-Tyr were synthesized by Eurofins Genomics (Tokyo, Japan). Cys-Tyr and Cys-Asp could not be purchased commercially. Different concentrations (3.13, 6.25, 12.5, 25, 50, 100, and 200 µM) of dipeptides as the inhibitor and 200 µM Tyr-Tyr-MCA (GenScript, NJ, US) as the substrate for DPP7 were added into a reaction buffer consisting of 50 mM sodium phosphate buffer pH 7.0, 5 mM EDTA and 0.005% Tween 20. For DPP11s, different concentrations (1.56, 3.13, 6.25, 12.5, 25, 50, and 100 µM) of dipeptides as the inhibitor and 100 µM Leu-Asp-MCA (Peptide Institute, Osaka, Japan) as the substrate were used. The enzyme reaction was performed at 298 K for 20 min and standard deviations were calculated from three independent experiments. Half-maximal inhibitory concentration (IC50) values were determined by fitting to a sigmoid curve (4-parameter logistic curve) using ImageJ software[35] and inhibition constants (Ki) were calculated using the Cheng-Prusoff Equation[36]. The fluorescence intensity of the released MCA was measured with the same method of determination of kinetics parameters toward dipeptidyl MCA.

Broadly, the Km is the substrate concentration at which the rate is half of its maximum. What is called kcat is the number of substrate molecules converted per active site and unit of time at saturation. In the case of “glycyl-L-tyrosyl-4-methylcoumaryl-7-amide [Gly-Tyr-MCA]”, the Michaelis-Menten constant (Km) result was “–” in assay [1]; 586 ± 40 µM in assay [2]; 201 ± 10 µM in assay [3]; 215 ± 10 µM in assay [4]; 688 ± 38 µM in assay [5]; 717 ± 63 µM in assay [6]. Further, the Michaelis-Menten constant (Km) in [7] is 183 ± 4 µM. In addition, the kcat result in assay [1] is “–”; in assay [2], 0.0238 ± 0.0011 s⁻¹; in [3], 0.751 ± 0.015 s⁻¹; in assay [4], 0.454 ± 0.010 s⁻¹; in [5] it was 0.191 ± 0.009 s⁻¹; in [6] it was 0.0365 ± 0.0018 s⁻¹. The kcat in [7] worked out at 0.702 ± 0.022 s⁻¹. For the same molecule, the kcat/Km entry in [1] is “–”.
For the molecule “L-asparaginyl-L-tyrosyl-4-methylcoumaryl-7-amide [Asn-Tyr-MCA]”, the Km result in [1] was “–”; in [2] it was 277 ± 6 µM; in assay [3], 54.1 ± 2.1 µM; in assay [4], 66.6 ± 1.5 µM; in assay [5] it was 17.4 ± 1.4 µM; in assay [6], 390 ± 14 µM. In addition, in assay [7], the Km is 51.3 ± 1.6 µM. The kcat result in [1] is “–”; in assay [2], 0.183 ± 0.008 s⁻¹; in assay [3], 3.47 ± 0.02 s⁻¹; in assay [4], 2.60 ± 0.04 s⁻¹; in assay [5], 0.230 ± 0.012 s⁻¹; in assay [6] it was 0.198 ± 0.006 s⁻¹. The kcat in assay [7] came out at 3.67 ± 0.12 s⁻¹. Moreover, the kcat/Km entry in assay [1] was “–”.
Broadly, the Kd is a measure of binding affinity in units of concentration. For orientation: Ki means the dissociation constant of the complex between target and ligand, obtained from inhibition or displacement. Molecule `CC(C)[C@H](N)C(=O)N[C@@H](Cc1ccc(O)cc1)C(=O)O` [Val-Tyr] (H-Val-Tyr-OH) came in with a Kd in [8] of more than 40 µM. This molecule also came in with a Ki in assay [9] of 55.2 ± 0.5 µM.
For “L-tyrosyl-L-tyrosyl-4-methylcoumaryl-7-amide [Tyr-Tyr-MCA]”, the Km result in [1] is “–”; in assay [2] it was 251 ± 6 µM; in [3], 55.8 ± 1.5 µM; in assay [4], 46.4 ± 2.4 µM; in assay [5], 463 ± 88 µM; in [6] it was 275 ± 11 µM. The Michaelis constant (Km) in assay [7] was 81.7 ± 3.4 µM. In addition, the kcat result is “–” in [1]; 0.240 ± 0.003 s⁻¹ in [2]; 3.52 ± 0.04 s⁻¹ in assay [3]; 1.82 ± 0.07 s⁻¹ in assay [4]; 1.54 ± 0.18 s⁻¹ in [5]; 0.0403 ± 0.0004 s⁻¹ in assay [6]. In [7], the kcat turned out to be 3.83 ± 0.09 s⁻¹. Further, the kcat/Km result in [1] was “–”.
With Tyr-Tyr, binding in [8] was put at a Kd of 6.17 ± 0.39 µM. The “Effect on hydrolytic activity of SmDPP7 (residual activity)” value in assay [9] (200 µM Xaa-Tyr dipeptide and 200 µM Tyr-Tyr-MCA, Fig. 1) was “markedly inhibited”. Besides, the affinity in assay [9] corresponds to a Ki of 7.66 ± 1.27 µM.
